# Assay results published in article PMC10887108, “Novel Brain-Penetrant, Small-Molecule Tubulin Destabilizers for the Treatment of Glioblastoma” (Biomedicines, 2024).
# Columns and labels:
# U87 glioblastoma cells [1] = assay: alamarBlue cell viability assay, U87; format: cell-based; details: Homo sapiens, 72 h, U87, 72 h, average absolute IC50
# Method: (§1) Cells (100 µL/well) were seeded in 96-well tissue culture plates (Greiner Bio-One 650090; Kremsmünster, Austria). The plating density (cells/well) for each cell line was as follows: LN-18 (3000), U87 (4000), and HMC3 (5000). After overnight incubation, compounds were added to the cells (50 µL at 3× concentration, final 0.1% DMSO), and plates were incubated for 72 h. Cell viability was assessed by the addition of 25 µL of alamarBlue for a final concentration of 100 µM final concentration (Resazurin redox reagent, Sigma-Aldrich R7017; St. Louis, MO, USA). After a 4 h incubation, fluorescence was read on a CLARIOstar Plus plate reader (BMG Labtech, Ortenberg, Germany) at EX 570/EM 590 nm.
# [2] = tested on: LN-18 glioblastoma cells (TMZ-resistant); assay: alamarBlue cell viability assay, LN-18; format: cell-based; details: Homo sapiens, LN-18, 72 h, average absolute IC50
# Method: as §1
# porcine tubulin = molecular target: T1, porcine tubulin (Sus scrofa, UniProt P02554); assay: Tubulin polymerization assay (fluorescent reporter); format: biochemical; details: porcine tubulin 20 μM; for reduction in tubulin polymerization (AUC): compound 5 μM, relative to DMSO
# T1 construct: purchased Cytoskeleton, Inc. BK011P
# Method: Tubulin polymerization was evaluated by monitoring the incorporation of a fluorescent reporter into MTs during polymerization. The tubulin polymerization assay kit (Cytoskeleton, Inc. BK011P; Denver, CO, USA) was used according to the manufacturer’s instructions. Briefly, the tubulin reaction mix was kept on ice until immediately prior to use.
# (A,B) Representative tubulin polymerization plots and data quantification. […] (C) Immunofluorescence staining of β-tubulin in U87 glioblastoma cells. […] Images were captured using an Operetta confocal microscope at 40× magnification. Scale bar, 10 μm. […] Data was collected with a BD FACS Canto II Flow Cytometer and analyzed using the BD FACSDiva software. (E) The percentage of cells in G1, S, and G2/M phases from the histograms in (D). Data are plotted as mean ± SD from at least three independent experiments. Analysis between groups in (B) was performed using a one-way ANOVA with Tukey’s multiple comparisons test.
# [3] = tested on: U87 cells (microtubule network); assay: Immunofluorescent staining of cellular β-tubulin; format: cell-based, human; details: U87, compounds at their IC50 concentrations, 24 h
# Method: U87 cells (4000/well) were plated in black 96-well plates (Perkin Elmer 6055302; Waltham, MA, USA) and grown overnight. Cells were treated with compounds for 24 h, fixed with 4% paraformaldehyde for 20 min, and permeabilized with FoxP3 permeabilization buffer (eBioscience/Thermo Fisher Scientific 00-5523-00; Waltham, MA, USA) for 10 min at RT. Cells were incubated with an anti-TUBB3 (Tuj1) antibody (1:1000; […] Technologies 60052; Vancouver, BC, Canada) labeled with Hoechst 33342 dye (1:2000; Thermo Fisher Scientific H3570; Waltham, MA, USA). Images (40×) were taken with an automated high-content imaging microscope (Operetta, Perkin Elmer; Waltham, MA, USA).
# U87 glioblastoma cells [4] = assay: Cell cycle analysis (propidium iodide flow cytometry); format: cell-based, human; details: 48 h
# Method: […] Cells were washed in ice-cold PBS, resuspended in 1 mL of ice-cold 70% ethanol, and fixed overnight at −20 °C. Cells were centrifuged and resuspended in PBS containing RNAse A at a final concentration of 0.5 mg/mL (MilliporeSigma 10109142001; Burlington, MA, USA) and propidium iodide at a final concentration of 0.04 mg/mL (Sigma-Aldrich P4170, St. Louis, MO, USA) for 1 h at 37 °C. Nuclear staining was analyzed using a BD FACSCanto II flow cytometer (BD Biosciences; Franklin Lakes, NJ, USA) to determine cell cycle distribution. Cell cycle analysis was performed using the BD FACSDiva software v8.0.
# [5] = molecular target: T2, Porcine tubulin (colchicine binding site) (Sus scrofa, UniProt P02554); assay: Colchicine competitive binding assay (fluorescence); details: compound 50 µM, colchicine 10 μM, tubulin 20 μM
# T2 construct: purchased Cytoskeleton, Inc. T240; host or cells: brain tissue (purified)
Compound,IC50 (U87 glioblastoma cells [1]) [µM],IC50 [2] [µM],increase in tubulin polymerization (AUC) (porcine tubulin; paclitaxel 3 μM) [%],reduction in tubulin polymerization (AUC) (porcine tubulin),effect on tubulin organization / MT network morphology [3],"cells arrested at G2/M (U87 glioblastoma cells [4]; U87, 5 µM) [%]","cells arrested at G2/M (U87 glioblastoma cells [4]; U87, 20 nM) [%]",reduction of colchicine–tubulin fluorescence relative to control [5] [%]
"COc1cc2c(c(OC)c1OC)-c1ccc(OC)c(=O)cc1[C@@H](NC(C)=O)CC2 [colchicine, reference compound]",,,,,varying levels of disruption of tubulin organization,,64,
"COC(=O)Nc1nc2ccc(C(=O)c3cccs3)cc2[nH]1 [NOC, Nocodazole, reference compound]",,,,,,,,79
"CC(=O)O[C@H]1C(=O)[C@@]2(C)[C@H]([C@H](OC(=O)c3ccccc3)[C@]3(O)C[C@H](OC(=O)[C@H](O)[C@@H](NC(=O)c4ccccc4)c4ccccc4)C(C)=C1C3(C)C)[C@]1(OC(C)=O)CO[C@@H]1C[C@@H]2O [PX, paclitaxel, reference compound]",,,91,,,,,

# Now from value to compound, other results behind:
IC50 (U87 glioblastoma cells [1]) [µM],IC50 [2] [µM],increase in tubulin polymerization (AUC) (porcine tubulin; paclitaxel 3 μM) [%],Compound,reduction in tubulin polymerization (AUC) (porcine tubulin),effect on tubulin organization / MT network morphology [3],"cells arrested at G2/M (U87 glioblastoma cells [4]; U87, 5 µM) [%]","cells arrested at G2/M (U87 glioblastoma cells [4]; U87, 20 nM) [%]",reduction of colchicine–tubulin fluorescence relative to control [5] [%]
0.588,0.073,,CO[C@H]1CC[C@@H](C(=O)NC(=O)Nc2ccc(Oc3ncc(Cl)cn3)c(C)c2)CC1 [RGN3062],36%,substantial tubulin disruption,73,,
> 10,2.43,,CO[C@H]1CC[C@H](C(=O)NC(=O)Nc2ccc(Oc3ncc(Cl)cn3)c(C)c2)CC1 [RGN3096],no difference relative to the DMSO control,no visible effect on tubulin and cell structure,11,,
